For data set [1], the system named is isolated ileum of the guinea-pig. The data set is described as follows: Antihistaminic: opposing histamine contraction of isolated ileum. Conditions: promethazine as standard. The method, then:
The compounds of formula I, introduced in the conserving medium, are capable of opposing the contractural action of histamine on the isolated ileum of the guinea-pig. This activity is evaluated by taking promethazine as standard.

Data set [2] can be described thus: Lethal doses / percentage mortality, oral. Conditions: 2 000 mg/Kg/p.o.; 2000 mg/kg. It counts as in vivo. From the text: As a result of a comparison between the pharmacologically active doses mentioned above and the lethal doses listed in the following Table XII, the difference between said doses is sufficiently great to permit the utilisation of the compounds of formula (I) in therapeutics.

Data set [3] deals with gastric ulcers, provoked in a rat by tying of the pylorus (Shay ulcers). Nature of the data set: Antiulcerous: reduction of Shay ulcers (tying of the pylorus). Conditions: 50 mg/Kg/i.d. The data set is classed as in vivo. The method, then: The compounds of formula (I) administered by intraduodenal means reduce the extent of gastric ulcers, provoked in a rat by tying of the pylorus (Shay ulcers).
By way of example, there is listed in the following Table IX, the results obtained by the administrations of 50 mg/Kg/i.d. of different compounds of formula (I).

The test system of data set [4] is oedema caused by the sub-plantar injection of carraghenin. The data set is described as follows: Antiinflammatory: reduction of sub-plantar oedema caused by carraghenin, rat. Conditions: 100 mg/Kg/p.o. The data set is classed as in vivo. On the procedure: These properties are shown by a diminution of the local oedema caused by the sub-plantar injection of a phlogogenic agent, such as carraghenin, in the rat following the oral administration of compounds of formula (I).
The following Table VI lists, by way of example, the percentage reduction of the oedems caused by the sub-plantar injection of carraghenin, resulting from the administration of 100 mg/Kg/p.o. of different compounds of formula (I).

For data set [5], the system named is bronchoconstriction provoked in the guinea-pig by acetylcholine. Nature of the data set: Antibronchoconstrictive and anticholinergic: bronchoconstriction by intravenous acetylcholine, Konzett method. The data set is classed as in vivo. From the text: Injected by intraveinous or intraduodenal means, the compounds of formula (I) are capable of opposing the bronchoconstriction provoked in the guinea-pig by the itraveinous injection of acetylcholine by the Konzett method.
By way of example, the following Table VII lists the results obtained by the administration of different compounds of formula (I)

Another data set has as its system volume of urine emitted. Nature of the data set: Diuretic: augmentation of urinary elimination. The data set is classed as in vivo. Conditions: 25 mg/Kg/p.o., mouse, 6 hours. The method, then:
The compounds of formula (I), administered by oral means to the mouse, simultaneously with a volume of 1 ml. of an isotonic solution of sodium chloride per 25 g of the corporeal weight of the mouse, are capable of provoking an augmentation of the volume of urine emitted by reference to control animals, the volume being measured for 6 hours following administration.
By way of example, the following Table XI lists the results obtained by the administration of 25 mg/Kg/p.o. of different compounds of formula (I).

For data set [6], the system named is rat suffering from high blood pressure. The data set is described as follows: Antihypertensive: return of systolic arterial pressure to normal in rats with high blood pressure. The data set is classed as in vivo. Conditions: 200 mg/Kg/p.o. The text has this:
The compounds of formula (I), administered by oral means to a rat suffering from high blood pressure, are capable of lowering the systolic arteriel pressure.
By way of example, there is provided in the following Table IV the results obtained by administration of different compounds of formula (I).

For data set [7], the system named is excursions into the escape enclosure. Nature of the data set: Central nervous system stimulation: excursions in the escape test. The data set is classed as in vivo. Conditions: 100 mg/Kg/p.o., mouse. The method, then:
The compounds of formula (I), administered by oral means to the mouse, provoke an augmentation of the number of excursions into the escape enclosure.
Thus, following the administration of 100 mg/Kg/p.o. of the compounds of Code Nos. 72 457 and 72 736, an augmentation of 30% in the number of excursions in the escape test, is observed.

In data set [8] the test system is explorations in the escape enclosure. Nature of the data set: Sedative: reduction of number of explorations in the escape enclosure. It counts as in vivo. Conditions: 100 mg/Kg/p.o., mouse. The method, then:
The compounds of formula (I), administered by oral means to the mouse, reduce the number of explorations in the escape enclosure.
By way of example, the following Table VIII lists the results obtained by the administration of 100 mg/Kg/p.o. of different compounds of formula (I).

In data set [9] the test system is isolated heart of a guinea-pig. The data set is described as follows: Vasodilatatory: coronary flow of isolated heart. Conditions: 1 μg/ml in perfusion liquid. The method, then:
The compounds of formula (I) are capable of augmenting the flow of the coronary vessels of the isolated heart of a guinea-pig when said compounds are added in the perfusion liquid of said organ.
By way of example, there can be found in the following Table X, the percentage augmentation of the flow of the isolated heart of a guinea-pig by adding different compounds of formula (I) to the perfusion liquid, in a concentration of 1 μg/ml.

Data set [10] has as its system isolated duodenum of the rat. The data set is described as follows: Spasmolytic: opposing barium chloride contraction of isolated duodenum. Conditions: papaverine as standard. On the procedure:
The compounds of formula (I), introduced in the conserving medium are capable of opposing the contractural action of barium chloride on the isolated duodenum of the rat. This activity is evaluated by taking papaverine as standard.

The structures appear in SMILES notation.

As for `O=C(CCn1c(CN2CCCC2)nc2ccccc21)c1ccc(Cl)cc1` [72 366], the “antihistaminic activity relative to promethazine” value in data set [1] is listed as “equivalent activity to that of promethazine”. The Percentage mortality in data set [2] worked out at 0%. Further, the “Percentage reduction of Shay ulcers” value in data set [3] stood at 40%. Also, the “Percentage reduction of sub-plantar oedema” value in data set [4] is reported as 60%.
Take `Cc1ccc(C(=O)CCn2c(CN3CCOCC3)nc3ccccc32)c(C)c1` [72 447]: the “Percentage inhibition of bronchoconstriction” value (“Percentage inhibition” below) in [5] (100 mg/kg/i.d.) came to 50%. In addition, in the data set on volume of urine emitted, the “Percentage augmentation of urinary elimination” value was 70%. The molecule also had a Percentage mortality in [2] of 0%. Also, the “Percentage reduction of Shay ulcers” value in data set [3] was found to be 35%. In addition, the “Percentage reduction of sub-plantar oedema” value in data set [4] is reported as 40%.
For `Cc1ccc(C(=O)CCn2c(CN(C)C)nc3ccccc32)cc1` [72 457], in [5] (100 mg/kg/i.d.), the “Percentage inhibition” value is reported as 80%. Further, in [6], the “Percentage of rats with high blood pressure whose systolic arteriel pressure is returned to normal” value is recorded as 50%. For the same molecule, the “augmentation in the number of excursions in the escape test” value in data set [7] is recorded as 30%. Also, the “Percentage augmentation of urinary elimination” value with volume of urine emitted is listed as 45%. Besides, the Percentage mortality in [2] is recorded as 0%. Moreover, in data set [3], the “Percentage reduction of Shay ulcers” value is given as 30%.
Consider `CCN(CC)Cc1nc2ccccc2n1CCC(=O)c1ccc(OC)c(OC)c1.O=C(O)/C=C\C(=O)O` [72 692], for which the “Percentage augmentation of urinary elimination” value in the data set on volume of urine emitted was 70%. Also, the “Percentage reduction of number of explorations in the escape enclosure” value in data set [8] is given as 30%. For the same molecule, the “Percentage augmentations of flow of isolated heart of a guinea-pig” value in data set [9] turned out to be 60%.
Consider `CCN(CC)Cc1nc2ccccc2n1CCC(=O)c1ccc(C)cc1C.O=C(O)/C=C\C(=O)O` [72 736], for which, in data set [5] (10 mg/kg/i.v.), the “Percentage inhibition” value was 90%. For the same molecule, the “augmentation in the number of excursions in the escape test” value in [7] is given as 30%. The “Percentage reduction of Shay ulcers” value in data set [3] turned out to be 30%. Also, the “spasmolytic activity relative to papaverine” value in data set [10] is recorded as “equivalent spasmolytic actvity to that of papaverine”.

The values are drawn from US3962256A, “2-Aminomethyl benzimidazole derivatives” (Delalande S.A., priority 1973, dated 1976).
